Reference: US20120129898A1, “PHARMACEUTICAL COMPOSITIONS FOR POORLY SOLUBLE DRUGS” (priority 2007, published 2012)

Tests used:
[1] = Exposure after dosing crystalline HEP in animal species; format: in vivo; conditions: crystalline form dosed in animal species
[2] = Aqueous solubility of HEP; format: physicochemical

- Exposure of crystalline form (even nanocrystalline) [1]: very low exposure
- Aqueous solubility [2]: poor aqueous solubility
Compound: CCC(=O)c1csc(NC(=O)[C@H]([C@@H](C)c2ccccc2)N2C(=O)N[C@H](c3ccc(OCCO)cc3)C2=O)n1 [HEP, (2S,3S)-2-{(R)-4-[4-(2-hydroxy-ethoxy)-phenyl]-2,5-dioxo-imidazolidin-1-yl}-3-phenyl-N-(4-propionyl-thiazol-2-yl)-butyramide]
